Common to all, as to assay type: functional, cell-based
Assay [1] is described as follows: Cytotoxicity against human multidrug-resistant KB/VJ300 cells in presence of 0.12 uM vincristine.
The nature of assay [2]: Cytotoxicity against human KB/VJ300 cells.
The subject of a further assay is KB. In words: Cytotoxicity against human KB cells.

As a reminder, the IC50 is the concentration needed to halve the response being measured. For the compound `COC(=O)C1=C[C@@]23CCCN4CC[C@@]5(c6ccccc6N[C@]15CC2)[C@@H]43` [KOPSIJASMININE], in assay [1], the IC50 was 38700 nM.

As for `CC[C@]1(O)C[C@H]2CN(CCc3c([nH]c4ccccc34)[C@@](C(=O)OC)(c3cc4c(cc3OC)N(C=O)[C@H]3[C@@](O)(C(=O)OC)[C@H](OC(C)=O)[C@]5(CC)C=CCN6CC[C@]43[C@@H]65)C2)C1` [VINCRISTINE], the concentration for half-maximal inhibition (IC50) in assay [2] is 1340 nM; in the assay on KB, 16.7 nM.
